Measured values reported in patent US6207399A, “Methods of determining endogenous thrombin potential (ETP) and thrombin substrates for use in said methods” (Hemker; Hendrik Coenraad, priority 1995, dated 2001).
Peptide text beside a SMILES is read from it. * marks the point of attachment. pNA = O=[N+]([O-])c1ccc(N*)cc1

Tests used:
[1] = tested on: thrombin generation in tissue factor triggered plasma; assay: Manual determination of thrombin generation in plasma (subsampling method) and calculated prothrombinase activity; assay type: biochemical, human; conditions: for influence on the prothrombinase complex / coagulation cascade: calculated from decay constants and manual thrombin generation curves
Protocol: Manual determination of thrombin generation in plasma: Extrinsic pathway: To 480 μL defibrinated plasma were added: 172 μL buffer A which contains the substrate at concentrations between 0 to 2000 μM and 20 μL of a 54 μM phospholipid solution (final concentration: 1.5 μM). After incubation of 4 min at 37° C., 24 μL tissue factor (undiluted) was added. Thrombin formation started at zero time by adding 24 μL of a 0.5 M CaCl2 solution (final concentration: 16.67 mM). At regular time intervals of 12 s samples of 10 μL were subsampled as described above. From the amidolytic activities thus obtained, the thrombin generation curve can be drawn. […] Intrinsic pathway: To 480 μL defibrinated plasma were added: 168 μL buffer A which contains the substrate at concentrations between 0 to 1000 μM and 48 μL Actin FS (undiluted). This mixture was intensively mixed and incubated for 4 min at 37° C. Thrombin generation was started at zero time by adding 24 μL of a 0.5 M CaCl2 solution (final concentration: 16.67 mM).
Influence of the substrate on the prothrombinase-complex: With the obtained decay constants and from the curves obtained by the subsampling method we calculated the course of prothrombin conversion and the course of prothrombinase concentration.
Manual determination of thrombin generation in plasma: Extrinsic pathway: To 480 μL defibrinated plasma were added: 172 μL buffer A which contained the substrate at concentrations between 0 to 2000 μM and 20 μL of a 54 μM phospholipid solution (final concentration: 1.5 μM). After incubation for 4 min at 37° C., 24 μL tissue factor (undiluted) was added. Thrombin formation started at zero time by adding 24 μL of a 0.5 M CaCl2 solution (final concentration: 16.67 mM). At regular time intervals of 12 s samples of 10 μL were subsampled as described above. From the amidolytic activities thus obtained, the thrombin generation curve can be drawn.
Influence of the substrate on the prothrombinase-compzex: With the obtained decay constants and from the curves obtained by the subsampling method we calculated the course of prothrombin conversion and the course of prothrombinase concentration.

[2] = target: T1, factor Xa (Homo sapiens, UniProt P00742); assay: Kinetic parameters of hydrolysis of the substrates by factor Xa in buffer A at 37° C. (Example 4, Table 3); assay type: biochemical; conditions: buffer A, 37° C., 50 nM factor Xa
T1 construct: human factor Xa samples; gift of Dr. T. Lindhout (University of Limburg, Maastricht)
T1 sequence (P00742 41-179 limits assumed): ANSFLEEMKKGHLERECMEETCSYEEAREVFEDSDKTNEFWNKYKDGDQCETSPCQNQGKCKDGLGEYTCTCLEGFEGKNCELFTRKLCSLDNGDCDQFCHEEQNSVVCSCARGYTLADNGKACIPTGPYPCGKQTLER
T1 sequence (P00742 235-488 limits assumed): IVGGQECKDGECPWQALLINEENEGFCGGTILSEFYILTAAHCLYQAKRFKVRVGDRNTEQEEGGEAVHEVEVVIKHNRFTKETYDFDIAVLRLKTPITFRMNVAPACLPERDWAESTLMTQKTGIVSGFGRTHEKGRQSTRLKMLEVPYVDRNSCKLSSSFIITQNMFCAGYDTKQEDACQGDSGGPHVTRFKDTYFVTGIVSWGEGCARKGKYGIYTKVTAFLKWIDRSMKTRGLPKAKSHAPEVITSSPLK
Protocol: (§1) Kinetic parameters: The hydrolysis experiments were run in buffer A at 37° C. The liberation of p-nitroaniline was monitored at 405 nm in a dual wavelength (405-546 nm) spectrophotometer made in our workshop, using a personal computer for data recording. In a polystyrene microcuvette (total volume 500 μL), buffer A and substrate solution were added to obtain a final substrate concentration between 200 to 2000 μM. After 5 min of incubation at 37° C., enzyme solution was added to achieve a final concentration between 0.5 to 50 nM. The measurement was carried out at 37° C. in a thermostated cuvette-holder. The Michaelis constant (Km) and the catalytic constant (kcat) were obtained by measuring the initial reaction velocities at different substrate concentrations. The data obtained were fitted by linear regression on the Michaelis-Menten equation.
(§2) Kinetic parameters: The Km and kcat values for each substrate were determined at an enzyme concentration of 0.5-50 nM (thrombin) and 50 nM factor Xa. From the initial reaction velocities, measured for at least six substrate concentrations between 200 and 2000 μM, the Km and kcat values were calculated by linear regression on the Michaelis-Menten curve. Table 3 gives an overview of the kinetic parameters of the different substrates hydrolyzed by thrombin and by factor Xa in buffer A.

[3] = target: T2, euglobulin thrombin (Homo sapiens, UniProt P00734); assay: Decay constants of thrombin in plasma; assay type: biochemical
T2 construct: The euglobulin thrombin fraction was prepared from defibrinated human plasma; from tissue; host or cells: defibrinated human plasma (euglobulin fraction, acid precipitation, method of Josso and Prou-Wartelle)
Protocol: (§3) To this mixture was added 10 μL of a thrombin preparation to achieve a final concentration of 100 nM. At regular time intervals (5-10 s) 10 μL samples were subsampled into 490 μL buffer B which contained 200 μM of S2238 to determine thrombin activity. After 2 min the reaction was stopped by adding 300 μL 1M citric acid. The moment of sampling and stopping were recorded on a personal computer with pushbutton-equipped pipettes. The optical density was then read at 405 nm and the obtained amidolytic activities were used to calculate the decay constants. The obtained decay constant is the sum of the decay constants of the reaction of thrombin with antithrombin III (k1) and α2 -macroglobulin (k2).
as §3, with “Decay constants of thrombin in plasma: To 120 μL defibrinated plasma was added: 50 μL of buffer A which contained the substances to be tested. To” for “To”, “was” for “was then”

[4] = target: thrombin (Homo sapiens, UniProt P00734); assay: Kinetic parameters of hydrolysis of the substrates by thrombin in buffer A at 37° C. (Example 4, Table 3); assay type: biochemical; design: Pure human α-thrombin; gift of Dr. T. Lindhout (University of Limburg, Maastricht); conditions: buffer A, 37° C.
Protocol: as §1, §2

CC(C)[C@H](NC(=O)OCCS(C)(=O)=O)C(=O)N[C@@H](CCCNC(=N)N)C(=O)Nc1ccc([N+](=O)[O-])cc1.Cl [Msc-Val-Arg-pNA.HCl]
AA: amidolytic activity (maximum) ([1]; [S] 200 μM): 388.15 mOD/min
PT: prothrombinase concentration (maximum) ([1]; [S] 200 μM): 1119 mOD/min
T: thrombin concentration (maximum) ([1]; [S] 200 μM): 371.24 mOD/min
t: time point at which maximum of amidolytic activity is achieved ([1]; [S] 200 μM): 60 s
t: time point at which maximum of prothrombinase concentration is achieved ([1]; [S] 200 μM): 24 s
t: time point at which maximum of thrombin concentration is achieved ([1]; [S] 200 μM): 60 s
k2,M : k2 determined by the subsampling method ([1]; [S] 200 μM in plasma): 0.198 min⁻¹
AA: amidolytic activity (maximum) ([1]; [S] 500 μM): 387.15 mOD/min
PT: prothrombinase concentration (maximum) ([1]; [S] 500 μM): 1090 mOD/min
T: thrombin concentration (maximum) ([1]; [S] 500 μM): 374.80 mOD/min
t: time point at which maximum of amidolytic activity is achieved ([1]; [S] 500 μM): 60 s
t: time point at which maximum of prothrombinase concentration is achieved ([1]; [S] 500 μM): 24 s
t: time point at which maximum of thrombin concentration is achieved ([1]; [S] 500 μM): 60 s
k2,M : k2 determined by the subsampling method ([1]; [S] 500 μM in plasma): 0.178 min⁻¹
AA: amidolytic activity (maximum) ([1]; [S] 1000 μM): 456.42 mOD/min
PT: prothrombinase concentration (maximum) ([1]; [S] 1000 μM): 1346 mOD/min
T: thrombin concentration (maximum) ([1]; [S] 1000 μM): 443.82 mOD/min
t: time point at which maximum of amidolytic activity is achieved ([1]; [S] 1000 μM): 60 s
t: time point at which maximum of prothrombinase concentration is achieved ([1]; [S] 1000 μM): 24 s
t: time point at which maximum of thrombin concentration is achieved ([1]; [S] 1000 μM): 60 s
k2,M : k2 determined by the subsampling method ([1]; [S] 1000 μM in plasma): 0.144 min⁻¹
influence on the prothrombinase complex / coagulation cascade [1]: no inhibition of the prothrombinase activity
Factor Xa kcat [2]: 4.69 s⁻¹
Factor Xa kcat /Km [2]: 491 M/s
Km [2]: 9550 µM
(k1,corr) = k1,corr divided by μM AT-III ([3]; [S] 200 μM in plasma): 18300 M⁻¹ s⁻¹
k1,corr : k1 after correcting for k2,M and 0.170 ([3]; [S] 200 μM in plasma): 1.590 min⁻¹
k1 : AT-III dependent decay of thrombin ([3]; [S] 200 μM in plasma): 1.729 min⁻¹
k2 : α2 M dependent decay of thrombin ([3]; [S] 200 μM in plasma): 0.229 min⁻¹
koverall ([3]; [S] 200 μM in plasma): 1.958 min⁻¹
t1/2 ([3]; [S] 200 μM in plasma): 21.24 s
(k1,corr) = k1,corr divided by μM AT-III ([3]; [S] 500 μM in plasma): 16600 M⁻¹ s⁻¹
k1,corr : k1 after correcting for k2,M and 0.170 ([3]; [S] 500 μM in plasma): 1.444 min⁻¹
k1 : AT-III dependent decay of thrombin ([3]; [S] 500 μM in plasma): 1.614 min⁻¹
k2 : α2 M dependent decay of thrombin ([3]; [S] 500 μM in plasma): 0.178 min⁻¹
koverall ([3]; [S] 500 μM in plasma): 1.792 min⁻¹
t1/2 ([3]; [S] 500 μM in plasma): 23.22 s
(k1,corr) = k1,corr divided by μM AT-III ([3]; [S] 1000 μM in plasma): 9100 M⁻¹ s⁻¹
k1,corr : k1 after correcting for k2,M and 0.170 ([3]; [S] 1000 μM in plasma): 0.790 min⁻¹
k1 : AT-III dependent decay of thrombin ([3]; [S] 1000 μM in plasma): 0.980 min⁻¹
k2 : α2 M dependent decay of thrombin ([3]; [S] 1000 μM in plasma): 0.124 min⁻¹
koverall ([3]; [S] 1000 μM in plasma): 1.104 min⁻¹
t1/2 ([3]; [S] 1000 μM in plasma): 37.70 s
Km [4]: 882 µM
Thrombin kcat [4]: 0.79 s⁻¹
Thrombin kcat /Km [4]: 894 M/s

CC(C)[C@H](NC(=O)CNC(=O)CNC(=O)[C@@H](N)CCC(=O)O)C(=O)N[C@@H](CCCNC(=N)N)C(=O)Nc1ccc([N+](=O)[O-])cc1 [2HCl.H-Glu-Gly-Gly-Val-Arg-pNA] (H-EGGVR-pNA)
AA: amidolytic activity (maximum) ([1]; [S] 200 μM): 350.62 mOD/min
PT: prothrombinase concentration (maximum) ([1]; [S] 200 μM): 1086 mOD/min
T: thrombin concentration (maximum) ([1]; [S] 200 μM): 335.47 mOD/min
t: time point at which maximum of amidolytic activity is achieved ([1]; [S] 200 μM): 60 s
t: time point at which maximum of prothrombinase concentration is achieved ([1]; [S] 200 μM): 24 s
t: time point at which maximum of thrombin concentration is achieved ([1]; [S] 200 μM): 60 s
k2,M : k2 determined by the subsampling method ([1]; [S] 200 μM in plasma): 0.220 min⁻¹
AA: amidolytic activity (maximum) ([1]; [S] 500 μM): 376.42 mOD/min
PT: prothrombinase concentration (maximum) ([1]; [S] 500 μM): 1122 mOD/min
T: thrombin concentration (maximum) ([1]; [S] 500 μM): 359.48 mOD/min
t: time point at which maximum of amidolytic activity is achieved ([1]; [S] 500 μM): 60 s
t: time point at which maximum of prothrombinase concentration is achieved ([1]; [S] 500 μM): 24 s
t: time point at which maximum of thrombin concentration is achieved ([1]; [S] 500 μM): 60 s
k2,M : k2 determined by the subsampling method ([1]; [S] 500 μM in plasma): 0.192 min⁻¹
AA: amidolytic activity (maximum) ([1]; [S] 1000 μM): 409.85 mOD/min
PT: prothrombinase concentration (maximum) ([1]; [S] 1000 μM): 1149 mOD/min
T: thrombin concentration (maximum) ([1]; [S] 1000 μM): 396.23 mOD/min
t: time point at which maximum of amidolytic activity is achieved ([1]; [S] 1000 μM): 60 s
t: time point at which maximum of prothrombinase concentration is achieved ([1]; [S] 1000 μM): 24 s
t: time point at which maximum of thrombin concentration is achieved ([1]; [S] 1000 μM): 60 s
k2,M : k2 determined by the subsampling method ([1]; [S] 1000 μM in plasma): 0.169 min⁻¹
influence on the prothrombinase complex / coagulation cascade [1]: no inhibition of the prothrombinase activity
Factor Xa kcat [2]: 0.42 s⁻¹
Factor Xa kcat /Km [2]: 192 M/s
Km [2]: 2190 µM
(k1,corr) = k1,corr divided by μM AT-III ([3]; [S] 200 μM in plasma): 20380 M⁻¹ s⁻¹
k1,corr : k1 after correcting for k2,M and 0.170 ([3]; [S] 200 μM in plasma): 1.769 min⁻¹
k1 : AT-III dependent decay of thrombin ([3]; [S] 200 μM in plasma): 1.946 min⁻¹
k2 : α2 M dependent decay of thrombin ([3]; [S] 200 μM in plasma): 0.213 min⁻¹
koverall ([3]; [S] 200 μM in plasma): 2.159 min⁻¹
t1/2 ([3]; [S] 200 μM in plasma): 19.26 s
(k1,corr) = k1,corr divided by μM AT-III ([3]; [S] 500 μM in plasma): 19150 M⁻¹ s⁻¹
k1,corr : k1 after correcting for k2,M and 0.170 ([3]; [S] 500 μM in plasma): 1.662 min⁻¹
k1 : AT-III dependent decay of thrombin ([3]; [S] 500 μM in plasma): 1.733 min⁻¹
k2 : α2 M dependent decay of thrombin ([3]; [S] 500 μM in plasma): 0.291 min⁻¹
koverall ([3]; [S] 500 μM in plasma): 2.024 min⁻¹
t1/2 ([3]; [S] 500 μM in plasma): 21.04 s
(k1,corr) = k1,corr divided by μM AT-III ([3]; [S] 1000 μM in plasma): 16400 M⁻¹ s⁻¹
k1,corr : k1 after correcting for k2,M and 0.170 ([3]; [S] 1000 μM in plasma): 1.427 min⁻¹
k1 : AT-III dependent decay of thrombin ([3]; [S] 1000 μM in plasma): 1.594 min⁻¹
k2 : α2 M dependent decay of thrombin ([3]; [S] 1000 μM in plasma): 0.172 min⁻¹
koverall ([3]; [S] 1000 μM in plasma): 1.766 min⁻¹
t1/2 ([3]; [S] 1000 μM in plasma): 23.56 s
Km [4]: 1010 µM
Thrombin kcat [4]: 0.55 s⁻¹
Thrombin kcat /Km [4]: 542 M/s
